Laboratory results published in ChEMBL document CHEMBL3301562, “MMV Box screening against Plasmodium falciparum protein kinases and aminoacyl tRNA synthetases”.

Legend:
Assay type in all cases: functional
[1] = biological target: T1, Calcium-dependent protein kinase 4 (Plasmodium falciparum (isolate 3D7), UniProt Q8IBS5); test: MMV: CDPK4 Protein kinase inhibition assay using recombinant PfCDPK4, syntide2 peptide substrate, ATP and KinaseGlo to measure % inhibition at 1 uM MMV box compound.
T1 sequence (Q8IBS5 whole entry): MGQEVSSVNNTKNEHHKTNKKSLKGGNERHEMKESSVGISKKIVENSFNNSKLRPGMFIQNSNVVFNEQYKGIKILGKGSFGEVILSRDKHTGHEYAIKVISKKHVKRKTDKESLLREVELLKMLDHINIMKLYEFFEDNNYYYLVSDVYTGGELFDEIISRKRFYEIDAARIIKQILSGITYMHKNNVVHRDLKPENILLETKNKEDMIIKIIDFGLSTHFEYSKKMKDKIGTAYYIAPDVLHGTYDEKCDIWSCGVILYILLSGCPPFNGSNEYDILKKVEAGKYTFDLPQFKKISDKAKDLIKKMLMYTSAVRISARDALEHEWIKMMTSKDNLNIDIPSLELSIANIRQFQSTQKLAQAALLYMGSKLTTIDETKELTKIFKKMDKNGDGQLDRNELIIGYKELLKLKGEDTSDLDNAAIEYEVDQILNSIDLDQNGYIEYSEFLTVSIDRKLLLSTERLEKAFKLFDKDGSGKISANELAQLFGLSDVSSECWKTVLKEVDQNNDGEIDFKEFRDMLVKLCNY

[2] = biological target: T2, Putative uncharacterized protein pk7 (Plasmodium falciparum, UniProt O96214); test: Final concentrations were 1 uM ATP, 2 mM DTT, 20 mM MgCl2, 2 mM MnCl2, 0.01% BSA, and 6 ug/ml PK7, in a buffer of 20 mM Tris-HCl (pH 7.5). The enzyme itself was the only substrate present (since autophosphorylation occurs); 100 uM 1NA-PP1 was used as a control inhibitor. Incubation time was 3 hours.
T2 sequence (O96214 whole entry): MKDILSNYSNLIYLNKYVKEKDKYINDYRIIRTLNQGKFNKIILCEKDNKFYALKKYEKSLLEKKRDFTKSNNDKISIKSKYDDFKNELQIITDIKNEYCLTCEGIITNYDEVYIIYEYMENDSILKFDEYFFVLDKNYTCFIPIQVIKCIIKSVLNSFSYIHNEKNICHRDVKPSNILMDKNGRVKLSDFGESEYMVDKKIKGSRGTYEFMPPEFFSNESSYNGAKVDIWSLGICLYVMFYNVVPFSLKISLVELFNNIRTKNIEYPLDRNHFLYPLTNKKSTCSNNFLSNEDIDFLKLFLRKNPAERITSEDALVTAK

[3] = biological target: T3, Proline--tRNA ligase (Plasmodium falciparum (isolate 3D7), UniProt Q8I5R7); test: MMV: ProRS recombinant Plasmodium falciparum Prolyl-tRNA-synthetase, assay with yeast tRNA, ATP, and proline and 3 uM MMV malaria box compound, assay read out with kinase glo as % inhibition.
T3 sequence (Q8I5R7 whole entry): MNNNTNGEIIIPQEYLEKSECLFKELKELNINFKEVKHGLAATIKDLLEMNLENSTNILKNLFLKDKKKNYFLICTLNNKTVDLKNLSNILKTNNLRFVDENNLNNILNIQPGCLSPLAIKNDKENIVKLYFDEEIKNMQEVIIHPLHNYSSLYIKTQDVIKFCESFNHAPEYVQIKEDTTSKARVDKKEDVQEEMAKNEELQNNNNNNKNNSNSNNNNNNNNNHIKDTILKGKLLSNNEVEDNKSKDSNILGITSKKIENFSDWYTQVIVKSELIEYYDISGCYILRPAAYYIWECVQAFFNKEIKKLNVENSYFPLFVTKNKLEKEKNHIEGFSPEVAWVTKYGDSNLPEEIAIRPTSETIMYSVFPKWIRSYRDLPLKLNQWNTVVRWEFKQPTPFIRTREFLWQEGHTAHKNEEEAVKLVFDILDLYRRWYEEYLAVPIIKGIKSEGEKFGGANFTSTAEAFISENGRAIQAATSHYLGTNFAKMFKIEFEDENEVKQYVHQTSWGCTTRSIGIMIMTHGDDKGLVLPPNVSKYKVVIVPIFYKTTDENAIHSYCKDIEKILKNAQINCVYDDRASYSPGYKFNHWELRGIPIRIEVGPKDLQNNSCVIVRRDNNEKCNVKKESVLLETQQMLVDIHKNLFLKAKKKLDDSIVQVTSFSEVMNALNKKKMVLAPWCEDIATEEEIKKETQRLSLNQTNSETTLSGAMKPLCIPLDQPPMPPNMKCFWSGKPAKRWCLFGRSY

[4] = biological target: Lysine--tRNA ligase (Plasmodium falciparum (isolate 3D7), UniProt Q8IDJ8); test: MMV: KRS recombinant Plasmodium falciparum Lysyl-tRNA-synthetase, assay with yeast tRNA, ATP, and lysine and 3 uM MMV malaria box compound, assay read out with kinase glo as % inhibition.
[5] = biological target: Calcium-dependent protein kinase 1 (Plasmodium falciparum, UniProt P62344); test: MMV: CDPK1 Protein kinase inhibition assay using recombinant PfCDPK1, syntide 2 peptide substrate, ATP and KinaseGlo to measure % inhibition at 1 uM MMV box compound.
[6] = biological target: T4, Cdk-related protein kinase 6 (Plasmodium falciparum, UniProt O77239); test: Final concentrations were 1.5 uM ATP, 5 mM MnCl2, and 15 ug/ml PK6 in a buffer of 100 mM Tris-HCl (pH 7.5). 50 ug/mL MBP was provided as the substrate; 10 uM staurosporine was used as a control inhibitor. Incubation time was 3 hours and 40 minutes.The catalytic activity of each kinase was considered proportional to ATP consumed, as determined from measurements of residual [ATP] with the luciferase-based reagent Kinase-Glo (Promega) following incubation. Luminescence (proportional to residual [ATP]) was measured on the plate readers FLx800 (BioTek Instruments, Winooski, VT, USA) and MicroBeta2.
T4 sequence (O77239 whole entry): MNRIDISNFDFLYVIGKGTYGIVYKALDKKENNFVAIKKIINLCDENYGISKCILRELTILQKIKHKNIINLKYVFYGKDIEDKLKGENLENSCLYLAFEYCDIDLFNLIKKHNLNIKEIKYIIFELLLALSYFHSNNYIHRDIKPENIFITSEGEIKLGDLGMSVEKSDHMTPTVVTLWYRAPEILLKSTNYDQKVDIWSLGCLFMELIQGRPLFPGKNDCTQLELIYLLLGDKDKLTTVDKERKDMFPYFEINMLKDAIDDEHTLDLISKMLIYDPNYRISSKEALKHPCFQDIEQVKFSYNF

[7] = biological target: T5, Mitogen-activated protein kinase (Plasmodium falciparum, UniProt Q25917); test: Final concentrations were 1 uM ATP, 0.5 mM DTT, 1 mM MgCl2, 0.5 mg/mL BSA, and 10 ug/ml MAP2 in a buffer of 50 mM HEPES (pH 7.0). 0.5 mg/mL histone III-S served as the substrate (13); 100 uM AMP-PNP, an ATP analog, was used as a control inhibitor. Incubation time was 4 hours.
T5 sequence (Q25917 whole entry): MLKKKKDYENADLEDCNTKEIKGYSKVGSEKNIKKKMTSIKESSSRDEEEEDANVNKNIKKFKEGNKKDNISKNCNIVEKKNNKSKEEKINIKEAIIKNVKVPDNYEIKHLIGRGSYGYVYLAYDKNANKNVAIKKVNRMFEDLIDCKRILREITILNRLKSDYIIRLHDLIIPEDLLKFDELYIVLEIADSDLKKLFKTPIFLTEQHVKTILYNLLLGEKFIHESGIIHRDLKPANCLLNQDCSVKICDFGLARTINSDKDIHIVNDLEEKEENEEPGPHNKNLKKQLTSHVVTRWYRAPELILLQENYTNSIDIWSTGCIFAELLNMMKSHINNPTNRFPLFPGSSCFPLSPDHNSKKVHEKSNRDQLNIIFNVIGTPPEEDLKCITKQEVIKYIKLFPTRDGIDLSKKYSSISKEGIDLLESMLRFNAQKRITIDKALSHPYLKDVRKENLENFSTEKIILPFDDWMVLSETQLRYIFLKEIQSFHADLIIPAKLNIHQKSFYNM

Chain of Calcium-dependent protein kinase 1 (P62344 whole entry): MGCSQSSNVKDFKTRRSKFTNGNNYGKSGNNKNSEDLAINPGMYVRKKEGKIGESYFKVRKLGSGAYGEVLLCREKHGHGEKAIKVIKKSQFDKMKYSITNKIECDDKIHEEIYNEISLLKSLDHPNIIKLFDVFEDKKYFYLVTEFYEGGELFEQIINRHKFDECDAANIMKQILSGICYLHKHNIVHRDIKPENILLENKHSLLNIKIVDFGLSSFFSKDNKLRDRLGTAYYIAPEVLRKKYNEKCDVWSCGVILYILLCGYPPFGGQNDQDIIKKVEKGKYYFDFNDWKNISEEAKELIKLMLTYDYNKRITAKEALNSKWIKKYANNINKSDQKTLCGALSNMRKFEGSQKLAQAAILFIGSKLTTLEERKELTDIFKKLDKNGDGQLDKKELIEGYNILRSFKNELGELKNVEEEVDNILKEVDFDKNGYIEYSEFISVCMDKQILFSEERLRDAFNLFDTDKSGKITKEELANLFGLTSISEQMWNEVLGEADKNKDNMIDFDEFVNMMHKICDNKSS
Chain of Lysine--tRNA ligase (Q8IDJ8 whole entry): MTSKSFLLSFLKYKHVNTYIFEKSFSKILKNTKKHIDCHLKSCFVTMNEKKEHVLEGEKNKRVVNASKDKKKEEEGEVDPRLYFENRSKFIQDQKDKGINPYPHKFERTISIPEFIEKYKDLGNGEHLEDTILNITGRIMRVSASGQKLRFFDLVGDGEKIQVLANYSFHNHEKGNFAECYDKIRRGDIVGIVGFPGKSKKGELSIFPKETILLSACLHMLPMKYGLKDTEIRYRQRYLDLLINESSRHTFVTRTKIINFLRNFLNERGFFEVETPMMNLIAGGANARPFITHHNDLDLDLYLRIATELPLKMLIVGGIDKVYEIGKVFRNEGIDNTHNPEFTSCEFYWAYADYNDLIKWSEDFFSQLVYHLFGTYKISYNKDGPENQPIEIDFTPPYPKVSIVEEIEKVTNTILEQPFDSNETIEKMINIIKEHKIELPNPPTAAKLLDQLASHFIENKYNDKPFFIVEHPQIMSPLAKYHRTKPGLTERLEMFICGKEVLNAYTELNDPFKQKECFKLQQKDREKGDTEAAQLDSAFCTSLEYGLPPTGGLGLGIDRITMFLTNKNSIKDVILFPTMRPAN

SMILES	IC50 [1] [nM]	IC50 [2] [nM]	IC50 [3] [nM]	IC50 [4] [nM]	IC50 [5] [nM]	IC50 [6] [nM]	IC50 [7] [nM]
COc1ccc(-c2cc3c(nn2)-c2ccccc2C3=O)cc1	> 1000	> 1000	> 2500	> 2500	> 1000	> 1000	> 1000
c1ccc(/C2=N/c3ccccc3/N=C(/c3ccccc3)c3ccccc32)cc1	> 1000	> 1000	> 2500	> 2500	> 1000	> 1000	> 1000
COc1ccc(C2c3ccc4ccccc4c3Oc3ncn(CCCn4ccnc4)c(=N)c32)cc1OC (stereo not given)	> 1000	> 1000	> 2500	> 2500	> 1000	> 1000	> 1000
CN(N=O)C1=C(NC2CCCCC2)C(=O)c2ccccc2C1=O	> 1000	> 1000	> 2500	> 2500	> 1000	> 1000	> 1000
COc1ccc(CN2CCCC(C(=O)c3ccc(C(F)(F)F)cc3)C2)c(O)c1 (stereo not given)	> 1000	> 1000	> 2500	> 2500	> 1000	> 1000	> 1000
Brc1ccc(Nc2nc3ccccc3nc2Nc2ccc(Br)cc2)cc1	> 1000	> 1000	> 2500	> 2500	> 1000	> 1000	> 1000
O=C(NC1CCN(Cc2ccccc2)CC1)c1cc(C(=O)NC2CCN(Cc3ccccc3)CC2)cc(C(=O)NC2CCN(Cc3ccccc3)CC2)c1	> 1000	> 1000	> 2500	> 2500	> 1000	> 1000	> 1000
COc1ccc(-c2cn3c(C(=O)Nc4ccccc4Cl)c(-c4ccccc4)c4c3n2CCCC4)cc1	> 1000	> 1000	> 2500	> 2500	> 1000	> 1000	> 1000
Cc1cc(Nc2ccc(OCc3ccccc3)cc2)nc2cc(O)ccc12	> 1000	> 1000	> 2500	> 2500	> 1000	> 1000	> 1000
CCN(CC)CCNc1ccnc2cc3ccccc3cc12	> 1000	> 1000	> 2500	> 2500	> 1000	> 1000	> 1000
N=c1c2ccccc2nnn1-c1cccc(C(F)(F)F)c1	> 1000	> 1000	> 2500	> 2500	> 1000	> 1000	> 1000
COc1cc(-c2nc(-c3ccc(Sc4ccccc4)cc3)c(-c3ccccc3)[nH]2)cc(OC)c1O	> 1000	> 1000	> 2500	> 2500	> 1000	> 1000	> 1000
OC(Cn1nnc2ccccc21)Cn1c2ccc(Br)cc2c2cc(Br)ccc21 (stereo not given)	> 1000	> 1000	> 2500	> 2500	> 1000	> 1000	> 1000
CCOc1cc2c(cc1OCC)C(c1cc(Cl)ccc1O)NCC2 (stereo not given)	> 1000	> 1000	> 2500	> 2500	> 1000	> 1000	> 1000
Cc1ccc(-c2nc3ccccc3o2)cc1NCc1cc(Cc2ccccc2)ccc1O	> 1000	> 1000	> 2500	> 2500	> 1000	> 1000	> 1000
O=C(Cc1ccccc1)NC(c1ccc(Cl)cc1)c1c(O)ccc2ccccc12 (stereo not given)	> 1000	> 1000	> 2500	> 2500	> 1000	> 1000	> 1000
Cc1cccc(N2C(=O)C3C(C2=O)C2(c4ccccc4)C(=O)C3(c3ccccc3)C(c3ccc4c(c3)OCO4)=C2c2ccc3c(c2)OCO3)c1 (stereo not given)	> 1000	> 1000	> 2500	> 2500	> 1000	> 1000	> 1000
Cc1ccc(F)cc1NC(=O)c1cc(Cl)ccc1Nc1ccccc1	> 1000	> 1000	> 2500	> 2500	> 1000	> 1000	> 1000
CCCCCCc1cc2cc(-c3nc4ccccc4[nH]3)c(=Nc3ccccc3C)oc2cc1O	> 1000	> 1000	> 2500	> 2500	> 1000	> 1000	> 1000
CN(C)c1ccc(N=Cc2ccc(N3CCOCC3)cc2)cc1	> 1000	> 1000	> 2500	> 2500	> 1000	> 1000	> 1000
